Reference: patent US11136321B2, “Tricyclic compounds” (ALIGOS THERAPEUTICS, INC., priority 2019, dated 2021)
pEC50: −log10 of the molar value.

Each compound was assayed on HBV (assay: HBV-DNA antiviral assay using HepG2.117 cells). Conditions: Hepatitis B virus, 72 h, intracellular HBV DNA by qPCR, 3 days incubation.
Type: cell-based, genotype D HBV
Outline: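 HepG2.117 cells (genotype D HBV, Tet-off) seeded without doxycycline and treated for 3 days at 9 concentrations (4-fold dilutions) in 2% DMSO. Intracellular HBV DNA measured by qPCR against a standard curve, with viability from ATPlite run in parallel. EC50, EC90 and CC50 fitted relative to DMSO controls.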
CNC(=O)c1ccc(-n2c(=O)c3c(n4ncc(NC(C)c5ccccc5)c24)CN(C(=O)c2ccc(Br)c(C#N)c2)CC3)cc1 (centres unmarked) [Compound 83, 4-[12-(4-bromo-3-cyano-benzoyl)-8-oxo-5-(1-phenylethylamino)-2,3,7,12-tetrazatricyclo [7.4.0.0 2,6]trideca-1(9),3,5-trien-7-yl]-N-methyl-benzamide] gave a pEC50 of 6.30 to 7.00. Work on CNC(=O)c1ccc(-n2c(=O)c3c(n4ncc(Cc5ccc(C#N)cc5F)c24)CN(C(=O)c2ccc(Br)c(C#N)c2)CC3)cc1 [Compound 84, 4-[12-(4-bromo-3-cyano-benzoyl)-5-[(4-cyano-2-fluoro-phenyl)methyl]-8-oxo-2,3,7,12-tetrazatricyclo [7.4.0.0 2,6]trideca-1(9),3,5-trien-7-yl]-N-methyl-benzamide] yielded a pEC50 of 5.30 to 6.30. With CNC(=O)c1ccc(-n2c(=O)c3c(n4ncc(Cc5ccc(C#N)cc5F)c24)CN(C(=O)c2ccc(Br)c(Cl)c2)CC3)cc1 [Compound 85, 4-[12-(4-bromo-3-chloro-benzoyl)-5-[(4-cyano-2-fluoro-phenyl)methyl]-8-oxo-2,3,7,12-tetrazatricyclo [7.4.0.0 2,6]trideca-1(9),3,5-trien-7-yl]-N-methyl-benzamide] the pEC50 was ≥ 7.00. In the case of CNC(=O)c1ccc(-n2c(=O)c3c(n4ncc(Cc5ccc(OC)cc5F)c24)CN(C(=O)c2ccc(Br)c(C#N)c2)CC3)cc1 [Compound 86, 4-[12-(4-bromo-3-cyano-benzoyl)-5-[(2-fluoro-4-methoxy-phenyl)methyl]-8-oxo-2,3,7,12-tetrazatricyclo [7.4.0.0 2,6]trideca-1(9),3,5-trien-7-yl]-N-methyl-benzamide], the pEC50 was 6.30 to 7.00. For CNC(=O)c1ccc(-n2c(=O)c3c(n4ncc(Cc5ccc(OC)cc5F)c24)CN(C(=O)c2ccc(Br)c(Cl)c2)CC3)cc1 [Compound 87, 4-[12-(4-bromo-3-chloro-benzoyl)-5-[(2-fluoro-4-methoxy-phenyl)methyl]-8-oxo-2,3,7,12-tetrazatricyclo [7.4.0.0 2,6]trideca-1(9),3,5-trien-7-yl]-N-methyl-benzamide], the pEC50 was ≥ 7.00. For CNC(=O)c1ccc(-n2c(=O)c3c(n4ncc(Cc5ccc(OC)cc5)c24)CN(C(=O)c2ccc(Br)c(Cl)c2)CC3)cc1 [Compound 88, 4-[12-(4-bromo-3-chloro-benzoyl)-5-[(4-methoxyphenyl)methyl]-8-oxo-2,3,7,12-tetrazatricyclo [7.4.0.0 2,6]trideca-1(9),3,5-trien-7-yl]-N-methyl-benzamide], the pEC50 was ≥ 7.00. CNC(=O)c1ccc(-n2c(=O)c3c(n4ncc(Cc5ccc(OC)cc5)c24)CN(C(=O)c2ccc(Br)c(C#N)c2)CC3)cc1 [Compound 89, 4-[12-(4-bromo-3-cyano-benzoyl)-5-[(4-methoxyphenyl)methyl]-8-oxo-2,3,7,12-tetrazatricyclo [7.4.0.0 2,6]trideca-1(9),3,5-trien-7-yl]-N-methyl-benzamide] was tested, and the pEC50 was ≥ 7.00. O=C(c1ccc(Br)c(Cl)c1)N1CCc2c(n3ncc(Cc4ccccc4)c3n(-c3ccc(-c4ncc[nH]4)cc3)c2=O)C1 [Compound 90, 5-benzyl-12-(4-bromo-3-chloro-benzoyl)-7-[4-(1H-imidazol-2-yl)phenyl]-2,3,7,12-tetrazatricyclo [7.4.0.0 2,6] trideca-1(9),3,5-trien-8-one] was tested, and the pEC50 was 5.30 to 6.30.
